From US11766441B2, “Oral liquid compositions including chlorpromazine” (GENUS LIFESCIENCES INC., priority 2020, dated 2023)

Tests used:
[1] = Drug-excipient compatibility: HPLC assay and impurities of 20 mg/ml API/excipient solutions in purified water after storage; format: physicochemical
Experimental: Common excipients functioning as a solvent, a sweetener, an antioxidant, a chelating agent, a buffer system component, and a preservative were evaluated in the following example for excipient and drug substance compatibility. Compatibility was assessed through high performance liquid chromatography (HPLC) analysis of solutions containing the mixtures of the drug substance and the individual evaluated excipient in purified water. A relatively low concentration (20 mg/ml) of active pharmaceutical ingredient was selected to enhance potential oxidative or hydrolytic degradation of the API in the presence of the excipients. The excipients were used in slight excess to enhance potential interactions. The proportion of excipients was selected such that it was representative of their respective proportions to the API in the finished product.
Additionally, the pH of the solution was also monitored during development to ensure the physical stability of the product.

[2] = pH range of 1 to 12 at ambient temperature; cited from earlier work
[3] = after storage for 1 Month at 25° C./60% RH
[4] = after storage for 1 Month at 40° C./75% RH
[5] = after storage for 15 days at 60° C.

## CN(C)CCCN1c2ccccc2Sc2ccc(Cl)cc21.Cl [Chlorpromazine hydrochloride, 2-chloro-10-[3-(dimethylamino)propyl] phenothiazine hydrochloride]
[1]; 1 M, 25° C./60% RH
  Assay of Chlorpromazine Hydrochloride (% Label Claim): 98.6 % Label Claim
[1]; 1 M, 40° C./75% RH
  Assay of Chlorpromazine Hydrochloride (% Label Claim): 98.7 % Label Claim
[1]; 15 Days, 60° C.
  Assay of Chlorpromazine Hydrochloride (% Label Claim): 100.9 % Label Claim
[1]; T0
  Assay of Chlorpromazine Hydrochloride (% Label Claim): 98.3 % Label Claim
[1]; [3]
  Impurities (%) A: 0.07%
  Impurities (%) C: 0.07%
  Impurities (%) D: 0.03%
  Impurities (%) Total: 0.24%
  Impurities (%) UD (RRT 0.55): 0.02%
  Impurities (%) UD (RRT 0.61): 0.02%
  Impurities (%) UD (RRT 1.42): 0.03%
[1]; [4]
  Impurities (%) A: 0.21%
  Impurities (%) C: 0.07%
  Impurities (%) D: 0.08%
  Impurities (%) Total: 0.44%
  Impurities (%) UD (RRT 0.55): 0.02%
  Impurities (%) UD (RRT 0.61): 0.02%
  Impurities (%) UD (RRT 1.42): 0.03%
[1]; [5]
  Impurities (%) A: 0.55%
  Impurities (%) C: 0.08%
  Impurities (%) D: 0.18%
  Impurities (%) E: 0.02%
  Impurities (%) Total: 1.04%
  Impurities (%) UD (RRT 0.49): 0.02%
  Impurities (%) UD (RRT 0.55): 0.14%
  Impurities (%) UD (RRT 0.61): 0.03%
  Impurities (%) UD (RRT 1.42): 0.03%
[1]; time zero
  Impurities (%) Total: 0.11%
  Impurities (%) UD (RRT 0.82): 0.08%
  Impurities (%) UD (RRT 1.31): 0.03%
[2]
  solubility: greater than 1 g/mL
